Experimental data from US20190358247A1 (The Medical College of Wisconsin, Inc., priority 2016, published 2019).
Where “and” joins values, the source holds several entries; their conditions need not be identical. Equal values may be shown once.

Columns and labels:
MiaPaCa-2 cells [1] = test: Clonogenic (colony formation) assay; assay type: cell-based, human
Procedure: Clonogenic assay. […] The plates were kept within the incubator and media changed every 3-4 days until the control cells formed sufficiently large clones. The cell survival fractions were calculated as previously described.
MiaPaCa-2 cells were treated with a range of concentrations as shown (FIG. 10C), and the number of colonies formed were counted.

FC1242-luc = test: Orthotopic syngeneic FC1242-luc engraftment model, tumor growth; assay type: in vivo, C57BL/6 mice; conditions: for in vivo tumor growth compared with Met: 1 mg/kg daily i.p.
From the text: In vivo studies and bioluminescence imaging.

MiaPaCa-2 cells [2] = test: IncuCyte label-free cell confluence proliferation assay; assay type: cell-based, human; conditions: PDAC / MiaPaCa-2, from two independent cell growth assays
Procedure: Cell proliferation was measured using a label-free, non-invasive cellular confluence assay employing the IncuCyte™ Live-Cell Imaging Analyzer (Essen Bioscience). This system provides real-time cellular confluence data based on segmentation of high definition phase contrast images. […] MiaPaCa2 cells were treated with Met (1 and 2 mM) or Mito-Met-C10 (1-2 μM).
(§1) IncuCyte Analyzer-real time measurement of cell proliferation. The cell proliferation was measured using a label-free, noninvasive cellular confluence assay by IncuCyte Live-Cell Imaging Systems (Essen Bioscience, Ann Arbor, Mich., USA; IncuCyte FLR). This system enables collection of live cell images at 2 h intervals over several days. The IncuCyte Analyzer provides real-time cellular confluence data based on segmentation of high-definition phase-contrast images. The cell proliferation is expressed as an increase in percentage of cell confluence.

AMPK = test: Immunoblot of phosphorylated AMPK Thr-172 relative to total AMPK, MiaPaCa-2 cells; assay type: cell-based, human
Procedure: In this example, the inventors have shown that the mito-met compounds of the present invention cause an increased AMPK activation in cancer cells. In preliminary experiments (FIG. 4), human MiaPaCa2 and murine FC1199 PDAC cells treated 30 min with 1 μM mito-met (MM), 1 mM Met, or the oligomycin positive control were lysed, and proteins size-separated on SDS-PAGE, transferred to PVDF, and probed with an antibody to phosphorylated AMPK Thr-172.
Immunoblotting. MiaPaCa-2 PDAC cells (1×10^6) were plated to 80% confluency in 60 mm dishes and then serum-starved for 5 hours. […] Cells were stimulated with oligomycin as a positive control. After stimulation, cells were washed twice in cold PBS and lysed using a modified RIPA buffer. Lysates were normalized for protein concentration, size separated using reducing SDS-PAGE, electro-transferred to PVDF membranes (Millipore) and then probed using primary and horseradish peroxidase-conjugated secondary antibodies. Antibodies against total or phosphorylated 5′ AMP-activated protein kinase (AMPK) were purchased from Cell Signaling Technology (Danvers, Mass.) and used at the manufacturer's recommended dilutions. Proteins were visualized by chemiluminescence with auto-exposure and quantified by densitometric analysis using the FluorChem HD2 from Cell Biosciences (Santa Clara, Calif.).
AMPK activation in Mito-Met and Met-treated PDAC cells. […]

MiaPaCa-2 cells [3] = test: Radiosensitization, clonogenic survival after X-radiation; assay type: cell-based, human
Procedure: MiaPaCa2 cells (1000 cells/well) were cultured in quadruplicate overnight in 96-well plates and changed to fresh medium.
Radiation experiments. […] The cells were then treated with X-radiation at a dose of 0, 2, 4, and 6 Gy. The control cells were treated with the same concentration of vehicle (0.1% DMSO) where appropriate. After irradiation, cells were suspended and seeded at various densities (100-8,000 cells per well) in 6-well plates for clonogenic assay as described above. The plates were kept within the incubator and media changed every 3-4 days for 2 weeks. Wells with 10-50 sufficiently large clones were chosen for calculating the cell survival fractions.
Effect of Mito-Met and Met on PDAC radiosensitivity. Both control cells and cells were pretreated for 24 h with 1 mM Met or Mito-Met (1 μM) prior to X-radiation. Cell survival was measured by a clonogenic assay.

MiaPaCa-2 cells [4] = test: Oxygen consumption rate in intact cells, Seahorse XF96; assay type: cell-based, human; conditions: for effect on OCR: immediate
Procedure: Respiratory enzyme activity in intact and permeabilized cells. The mitochondrial function in intact and permeabilized pancreatic cancer cells was measured using a Seahorse XF96 Extracellular Flux Analyzer (Seahorse Bioscience, North Billerica, Mass., USA). Unless specified otherwise, assays in intact cells were performed as previously described. Measurement of mitochondrial respiratory complexes in permeabilized cells was performed according to the manufacturer's instructions (Seahorse Bioscience). Briefly, intact cells were permeabilized using 1 nM Plasma Membrane Permeabilizer (PMP, Seahorse Bioscience) immediately before oxygen consumption rate (OCR) measurement by XF96. The oxygen consumption derived from mitochondrial complex I or complex II activity was measured by providing different substrates to mitochondria, e.g., pyruvate/malate for complex I and succinate for complex II activity. Rotenone, malonate and antimycin A were used as specific inhibitors of mitochondrial complex I, II and III activities, respectively.
Effects of Met and Mito-Met analogs on mitochondrial bioenergetics in MiaPaCa-2 cells. The oxygen consumption rate (OCR) and the extracellular acidification rate (ECAR) were measured as a readout of mitochondrial function and glycolysis using a Seahorse Bioscience XF96 extracellular flux analyzer. We compared the immediate OCR changes in response to different concentrations (e.g., IC50 or higher values determined by clonogenic assay) of Met, Mito-Met2, Mito-Met6, Mito-Met10, and phenformin (FIG. 13A).
Next we monitored the mitochondrial OCR changes in MiaPaCa-2 cells after 24 h treatment with Met, Mito-Met analogs, and phenformin followed by a washout of the treatments and return to fresh cell culture media.

HaCaT = test: IncuCyte cell confluence assay, keratinocytes; assay type: cell-based
Procedure: as §1

Br.N=C(N)NC(=N)NCCCCCCCCCC[P+](c1ccccc1)(c1ccccc1)c1ccccc1 [Mito-Met10]
colony formation (MiaPaCa-2 cells [1]; 3 μM, 24 h): Almost no colony formation | IC50 (MiaPaCa-2 cells [1]; read-out: IC50, colony formation / survival fraction, MiaPaCa-2, 24 h treatment): 1.1 µM | in vivo tumor growth compared with Met (FC1242-luc): considerably more potent than Met | in vivo tumor growth compared with Met (FC1242-luc; listed as Mito-Met): considerably more effective than Met | therapeutic index relative to Met (FC1242-luc; mouse, in vivo): ~1,000 fold | times more effective than Met in abrogating PDAC tumor growth (FC1242-luc; mouse, in vivo): at least 100 times | fold more effective than metformin in inhibiting cell proliferation (MiaPaCa-2 cells [2]): ~1,000 fold and > 1,000 fold | fold more effective than metformin in inhibiting cell proliferation (MiaPaCa-2 cells [2]; listed as mito-met-C10): ~1,000 fold | potency of AMPK activation relative to metformin (AMPK; MiaPaCa-2): ~1,000 fold | increase in active AMPK (phosphorylated relative to total protein) (AMPK; human MiaPaCa-2, 1 μM, 30 min): 1.5-2.5 fold | radiosensitizing concentration, fold lower than Met (MiaPaCa-2 cells [3]; 1 μM versus Met 1 mM): 1,000 fold | radiosensitization (MiaPaCa-2 cells [3]; 24 h pretreatment (1 mM Met, 1 μM Mito-Met) before X-radiation): as effective as 1 mM Met | concentration at which OCR was inhibited (MiaPaCa-2 cells [4]; 24 h treatment, washout): 1 µM | effect on OCR (MiaPaCa-2 cells [4]; 1 μM): did not inhibit OCR | effect on OCR (MiaPaCa-2 cells [4]; ≈10 μM): slight inhibition | effect on cell confluence (HaCaT): not significantly affected
